# Assays:
# [1] = Transdermal iontophoretic delivery of salmon calcitonin with stepwise decreased voltage (Example 4); assay type: in vivo, male SD rat (7-week aged); details: for bioavailability (BA): Applicator A, 4 μg per membrane (BAC pretreated), 30 kHz, duty 50%
# Description: (§1) Blood was took from jugular veins (cervical vein) of the rat and centrifuged at a rate of 12,000 rpm for 10 minutes, and the concentration of the salmon calcitonin in the obtained serum sample was determined by a radioimmunoassay method. The results are illustrated in FIG. 3.
# An abdominal skin of a male SD rat (7-week aged) was clipped with a hair clipper and treated with a shaver under pentobarbital-anesthetization, and was slightly rubbed with an absorbent cotton holding a 70% aqueous solution of ethanol for defatting and disinfection. […] Immediately before the use of the applicator, the dried drug was dissolved by supplying water from the reservoir. Further, a reference electrode was attached and fixed to the skin in the same manner as Example 1.
# Then, in the common condition of a frequency of 30 kHz and a duty of 50%, the calcitonin was transdermally delivered according to the following processes:
# (1) a process of applying a voltage of 12 V for 5 minutes and, without interruption, applying a voltage of 7.5 V for 40 minutes,
# (2) a process of applying a voltage of 12 V for 15 minutes and, without interruption, applying a voltage of 7.5 V for 30 minutes, and
# (3) a process of applying a voltage of 12 V for 15 minutes.
# The salmon calcitonin concentrations in the serum were evaluated in the same manner as Example 1, and the results are illustrated in FIG. 6.
# [2] = Transdermal iontophoretic delivery of salmon calcitonin with different amounts in drug-retaining membrane (Example 2); assay type: in vivo, SD rat (male, 7-week aged); details: 12 V
# Description: (§2) An abdominal skin of a SD rat (male, 7-week aged) was clipped with a hair clipper and treated with a shaver under pentobarbital-anesthetization, and was slightly rubbed with an absorbent cotton (cotton wool) containing a 70% aqueous solution of ethanol for defatting and disinfection. […] Meanwhile, in the Applicator A shown in FIG. 1, the dried drug was dissolved immediately before use by supplying or feeding water to the membrane from the reservoir. In the applicator B illustrated in FIG. 2, the applicator was first attached or adhered to the skin and then the dried drug was dissolved by supplying 120 μl of a distilled water from an injection tip. […]
# Blood was took from jugular veins (cervical vein) of the rat and centrifuged at a rate of 12,000 rpm for 10 minutes, and the concentration of the salmon calcitonin in the obtained serum sample was determined by a radioimmunoassay method. […]
# (§3) Under pentobarbital-anesthetization, an abdominal skin of a SD rat (male, 7-week aged) was clipped with a hair clipper and treated with a shaver, and was slightly rubbed with an absorbent cotton (cotton wool) containing a 70% aqueous solution of ethanol for defatting and disinfection. […] The current density determined in the initial stage of the voltage application was about 0.24 mA/cm^2 as a mean value of the each rat. […]
# [3] = Correlation between initial electric current value and AUC value (Example 3); assay type: in vivo, SD rat (male, 7-week aged); details: in terms of dosage of 20 μg; initial current 0.2 mA/2.5 cm^2 to 0.7 mA/2.5 cm^2 (0.08 to 0.28 mA/cm^2); 48 tests; FIG. 5
# Description: as §2
# Then, a continuous voltage application for 15 minutes was repeated for 3 times at a time interval of 5 minutes in the following manner. […] In the respective voltage application, observed electric current in the initial stage of the voltage application was respectively determined for each rat. […]
# as §3
# [4] = Transdermal iontophoretic delivery of salmon calcitonin; serum concentration by radioimmunoassay and bioavailability (AUC relative to intravenous) (Example 1); assay type: in vivo, SD rat (male, 7-week aged); details: for bioavailability (BA): 20 μg per membrane (BSA pretreated), 40 kHz, duty 30%, 15 min x 3 at 5 min interval, vs intravenous AUC
# Description: An abdominal skin of a SD rat (male, 7-week aged) was clipped with a hair clipper and treated with a shaver under pentobarbital-anesthetization, and was slightly rubbed with an absorbent cotton (cotton wool) containing a 70% aqueous solution of ethanol for defatting and disinfection. […] Meanwhile, in the Applicator A shown in FIG. 1, the dried drug was dissolved immediately before use by supplying or feeding water to the membrane from the reservoir. In the applicator B illustrated in FIG. 2, the applicator was first attached or adhered to the skin and then the dried drug was dissolved by supplying 120 μl of a distilled water from an injection tip. Further, a silver chloride electrode (2.5 cm^2) as a reference electrode was adhered and fixed in the opposite part to the adhered part of the applicator via an electrically conductible gel comprising 10% PVA gel containing 0.9% of NaCl in a thickness of 2 mm.
# Then, a continuous voltage application for 15 minutes was repeated for 3 times at a time interval of 5 minutes in the following manner. That is, the voltage application was effected by a direct-current pulse application (depolarizing constant voltage square pulse application) with a frequency of 40 kHz and a duty (pulse-duty factor) of 30% using the applicator as an anode and the reference electrode as a cathode, with changing the applied voltage as follows. In the respective voltage application, observed electric current in the initial stage of the voltage application was respectively determined for each rat. The current density as a mean value for the subjects are as follows.
# (1) Applicator A: voltage 6 V current density about 0.04 mA/cm^2
# (2) Applicator B: voltage 12 V current density about 0.24 mA/cm^2
# (3) Applicator C: voltage 12 V current density about 0.24 mA/cm^2
# as §1
substance,measurement,setting,value
salmon calcitonin,bioavailability (BA),[1]; process (1): 12 V for 5 min then 7.5 V for 40 min,13.6%
same,bioavailability (BA),[1]; process (2): 12 V for 15 min then 7.5 V for 30 min,14.2%
same,bioavailability (BA),[1]; process (3): 12 V for 15 min,3.6%
same,serum salmon calcitonin concentration,"[1]; processes (1) and (2) compared with process (3), FIG. 6",high
same,bioavailability (BA),"[2]; Applicator B, drug-retaining membrane (1), 10 μg (BAC pretreated), 40 kHz, duty 30%, 15 min x 3 at 5 min interval",23.3%
same,serum salmon calcitonin concentration,"[2]; according to possessing amount (10 or 20 μg), FIG. 4",could be controlled according to the possessing amount
same,AUC value,[3],large AUC values
same,bioavailability (BA),"[4]; Applicator A, applied voltage 6 V",4.6%
same,bioavailability (BA),"[4]; Applicator A, applied voltage 12 V",16.6%
same,bioavailability (BA),"[4]; Applicator B, applied voltage 12 V",16.6%
same,salmon calcitonin concentration in the serum,"[4]; applied voltage 12 V (iontophoresis (2) and (3)) in comparison with 6 V (1), FIG. 3",can be increased in comparison with the iontophoresis (1)
